Measured values taken from US20220151935A1, “USE OF AMINO ACID BASED NUTRIENTS AND PHARMACEUTICAL COMPOSITION CONTAINING THE SAME” (priority 2018, published 2022).
Marks after values point to notes of the source that are not given here. Each block holds one compound with its values, some of them ahead of it. Peptide text beside a SMILES is read from it.

Key:
breast cancer 4T1 cells = experiment: Tumor weight and tumor inhibition in BALB/c mice bearing breast cancer 4T1 cells; conditions: for Intratumoral injection Tumor inhibition rate / Intratumoral injection Tumor weight: Table 10, avg tumor volume 336 mm^3, 150 μl/mouse every 3 days x3, 5th day after last dose; for Tumor inhibition rate / Tumor weight (x ± s) / Tumor weight (g) (x ± s) / Tumor weight: intratumoral 150 μl/mouse every 3 days x3;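 for all read-outs here: subcutaneous grafts in the right axilla, tumors excised and weighed after euthanasia, inhibition rate derived from group mean tumor weight versus the negative control group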
[1] = pH of the drug composition; assay type: physicochemical; conditions: aqueous solution
[2] = system: human breast cancer cells (MDA-MB231); experiment: Tumor inhibition in nude mice bearing human breast cancer cells (MDA-MB231); conditions: Example 2; intratumoral 100 μl/mouse every 3 days x3; next day; avg tumor volume 71 mm^3
[3] = system: human lung cancer cells (A549); experiment: Tumor inhibition in nude mice bearing human lung cancer cells (A549); conditions: Example 2; intratumoral 100 μl/mouse every 3 days x3; next day; avg tumor volume 83 mm^3
[4] = system: pancreatic cancer cells PANC-1; experiment: Tumor inhibition in nude mice bearing pancreatic cancer cells PANC-1; assay type: in vivo; conditions: for Tumor inhibition rate of intraperitoneal injection / Tumor inhibition rate of intratumoral injection: Table 3, avg tumor volume 105 mm^3, 100 μl/mouse every 3 days x3, next day after last dose; for Tumor inhibition rate: Table 4, avg tumor volume 136 mm^3, intratumoral every 3 days x3, ≤150 μl, next day
Experimental: (§1) They were injected intraperitoneally and intratumorally.
After anatomy, the tumor weight was measured and the tumor inhibition rate was calculated.

[5] = system: human head and neck cancer cells (Fμda); experiment: Tumor inhibition in nude mice bearing human head and neck cancer cells (Fμda); assay type: in vivo; conditions: Example 2; intratumoral 100 μl/mouse every 3 days x3; next day; avg tumor volume 109 mm^3
From the text: (§2) One of the core characteristics of tumors is heterogeneity. […] The corresponding negative control was normal saline.

[6] = system: human thyroid cancer cells (SW579); experiment: Tumor inhibition in nude mice bearing human thyroid cancer cells (SW579); conditions: Example 2; intratumoral 100 μl/mouse every 3 days x3; next day; avg tumor volume 103 mm^3
[7] = system: human ovary cancer cells (PA1); experiment: Tumor inhibition in nude mice bearing human ovary cancer cells (PA1); conditions: Example 2; intratumoral 100 μl/mouse every 3 days x3; next day; avg tumor volume 104 mm^3
[8] = system: human liver cancer cells (HepG2); experiment: Tumor weight and tumor inhibition in nude mice bearing HepG2; assay type: in vivo; conditions: for Intratumoral injection Tumor inhibition rate / Intratumoral injection Tumor weight / Tumor inhibition rate of intraperitoneal injection: Table 8, avg tumor volume 175 mm^3, ≤150 μl/mouse every 3 days x3, 5th day after last dose
Experimental: as §2, §1
The negative control group was given normal saline. The compositions of the study drug are as shown in the table below: 4 types and concentrations of amino acid based nutrient single drugs (X % amino acid based nutrients), 18 types and concentrations of ineffective absorption drugs (Y % ineffective absorption drugs), 24 compositions comprising various types and concentrations of amino acid based nutrients and ineffectively absorption drugs (X % amino acid based nutrients/Y % ineffectively absorption drugs).
The negative control was normal saline. The compositions of 16 study drugs, as shown in the table below, comprise: a 5-fluorouracil single drug of 4 varying concentrations (X % 5-fluorouracil), and an amino acid based nutrient with 5 varying concentrations (Y % amino acid based nutrient), 7 compositions consisting of 5-fluorouracil of varying concentrations and an amino acid based nutrient of varying concentrations (X % 5-fluorouracil/Y % amino acid based nutrient). […] The dose at each time was: 5-fluorouracil 50 mg/kg, glutathione ≤1 g/kg, and an injection volume was ≤150 μl/mouse.
The negative control was normal saline, the positive control was 1% 5-fluorouracil, and the study drug was 1% methylene blue/10% amino acid based nutrient composition (the type of the amino acid based nutrient is variable). The amino acid based nutrients in the compositions used in study groups 1-13 were: arginine, glycine, cysteine hydrochloride, valine, threonine, proline, histidine hydrochloride, phenylalanine, lysine, leucine, alanine, glutathione, serine, and the study drug used in the study group 14 was 1% methylene blue/5% arginine/5% glycine.

[9] = system: human nasopharynx cancer cells (CNE1); experiment: Tumor inhibition in nude mice bearing human nasopharynx cancer cells (CNE1); conditions: Example 2; intratumoral 100 μl/mouse every 3 days x3; next day; avg tumor volume 78 mm^3
[10] = system: human stomach cancer cells (BGC823); experiment: Tumor inhibition in nude mice bearing human stomach cancer cells (BGC823); conditions: Example 2; intratumoral 100 μl/mouse every 3 days x3; next day; avg tumor volume 85 mm^3
[11] = system: human prostate cancer cells (LNCaP/AR); experiment: Tumor inhibition in nude mice bearing human prostate cancer cells (LNCaP/AR); conditions: Example 2; intratumoral 100 μl/mouse every 3 days x3; next day; avg tumor volume 91 mm^3
HepG2 = experiment: Intratumoral tissue destruction, histological observation of HepG2 tumors; conditions: Table 7; intratumoral injection, once, ≤130 μl/mouse; next day; scale 0 = blank control, 5 = 5% acetic acid
hyperthyroidism = experiment: Hyperthyroidism model in rats (levothyroxine); conditions: first experiment, 25th day after administration, RIA
[12] = Table 12, avg tumor volume 317 mm^3, 5th day
[13] = Table 14, avg tumor volume 325 mm^3, 5th day
[14] = Table 13, avg tumor volume 307 mm^3, 5th day
[15] = Example 2, intratumoral 100 μl/mouse every 3 days x3, next day, avg tumor volume 81 mm^3
[16] = Table 16, avg tumor volume 169 mm^3, intratumoral every 3 days x3, ≤150 μl/mouse, 5th day
[17] = Table 15, avg tumor volume 316 mm^3, 5th day
[18] = Table 11, avg tumor volume 164 mm^3, intratumoral every 3 days x3, ≤150 μl, fifth day after last dose
[19] = Table 17, avg tumor volume 317 mm^3, fifth day

Drug pH ([1]; Table 14): 11.8
Structure (SMILES): [Na+].[OH-] [1% NaOH, sodium hydroxide]
Intratumoral injection Tumor inhibition rate (breast cancer 4T1 cells): 41%
Intratumoral injection Tumor weight (breast cancer 4T1 cells): 0.76 ± 0.24 g
Tumor inhibition rate (breast cancer 4T1 cells; [12]): 41%
Tumor weight (x ± s) (breast cancer 4T1 cells; [12]): 1.39 g
Tumor inhibition rate (breast cancer 4T1 cells; [13]): 42%
Tumor weight (x ± s) (breast cancer 4T1 cells; [13]): 1.41 ± 0.23 g

Structure (SMILES): O=C([O-])O.[Na+] [2% sodium bicarbonate, sodium bicarbonate]
Tumor inhibition rate (breast cancer 4T1 cells; [14]): 7%
Tumor weight (g) (x ± s) (breast cancer 4T1 cells; [14]): 2.10 ± 0.25 g
Drug pH ([1]; Table 13): 6.9

Structure (SMILES): O=C([O-])[O-].[Na+].[Na+] [2.8% sodium carbonate, sodium carbonate]
Tumor inhibition rate (breast cancer 4T1 cells; [14]): 7%
Tumor weight (g) (x ± s) (breast cancer 4T1 cells; [14]): 2.10 ± 0.27 g
Drug pH ([1]; Table 13): 10.9

Structure (SMILES): Cl.N[C@@H](CCC(=O)O)C(=O)O [3% glutamic hydrochloride, L-glutamic hydrochloride]
Tumor inhibition rate [2]: 61%
Tumor inhibition rate [3]: 57%
Tumor inhibition rate of intraperitoneal injection [4]: 68%
Tumor inhibition rate of intratumoral injection [4]: 5%
Tumor inhibition rate ([4]; hydrochloride): 69%
Tumor inhibition rate [5]: 58%
Tumor inhibition rate [6]: 63%
Tumor inhibition rate [7]: 61%
Tumor inhibition rate [8, 15]: 62%
Tumor inhibition rate [8, 16]: (70%)
Tumor inhibition rate [9]: 68%
Tumor inhibition rate [10]: 57%
Tumor inhibition rate [11]: 59%

Structure (SMILES): O=C([O-])O.[Na+] [4% sodium bicarbonate, sodium bicarbonate]
Tumor inhibition rate (breast cancer 4T1 cells; [17]): 23%
Tumor weight (x ± s) (breast cancer 4T1 cells; [17]): 1.68 ± 0.27 g
Drug pH ([1]; Table 15): 6.9

Structure (SMILES): CC(=O)O [5% acetic acid, acetic acid, reference compound]
Tumor inhibition rate [8, 18]: (71%)
Intratumoral tissue destruction (HepG2): 5

Structure (SMILES): O=C([O-])O.[Na+] [5% sodium bicarbonate, sodium bicarbonate]
Tumor inhibition rate (breast cancer 4T1 cells; [14]): 21%
Tumor weight (g) (x ± s) (breast cancer 4T1 cells; [14]): 1.79 ± 0.24 g
Drug pH ([1]; Table 13): 6.9

Structure (SMILES): O=C([O-])[O-].[Na+].[Na+] [7% sodium carbonate, sodium carbonate]
Tumor inhibition rate (breast cancer 4T1 cells; [14]): 20%
Tumor weight (g) (x ± s) (breast cancer 4T1 cells; [14]): 1.81 ± 0.21 g
Drug pH ([1]; Table 13): 10.8

Structure (SMILES): C[C@H](N)C(=O)N[C@@H](CCC(N)=O)C(=O)O [10% ALA-GLN, Alanyl-glutamine dipeptide] (H-Ala-Gln-OH)
Tumor inhibition rate [2]: 57%
Tumor inhibition rate [3]: 52%
Tumor inhibition rate of intraperitoneal injection [4]: 53%
Tumor inhibition rate of intratumoral injection [4]: 2%
Tumor inhibition rate [5]: 51%
Tumor inhibition rate [6]: 59%
Tumor inhibition rate [7]: 62%
Tumor inhibition rate [8, 15]: 56%
Tumor inhibition rate [9]: 63%
Tumor inhibition rate [10]: 51%
Tumor inhibition rate [11]: 61%

Structure (SMILES): N=C(N)NCCC[C@H](N)C(=O)O [10% arginine, L-arginine]
Tumor inhibition rate (breast cancer 4T1 cells; [12]): 19%
Tumor weight (x ± s) (breast cancer 4T1 cells; [12]): 1.91 g
Tumor inhibition rate (breast cancer 4T1 cells; [19]): 21%
Tumor weight (breast cancer 4T1 cells; [19]): 1.23 ± 0.31 g
Tumor inhibition rate [4]: 43%
Tumor inhibition rate [8, 18]: (43%)

Structure (SMILES): O=C([O-])O.[Na+] [10% sodium bicarbonate, sodium bicarbonate]
Tumor inhibition rate (breast cancer 4T1 cells; [14]): 30%
Tumor weight (g) (x ± s) (breast cancer 4T1 cells; [14]): 1.58 ± 0.22 g
Drug pH ([1]; Table 13): 6.8

Structure (SMILES): O=C([O-])[O-].[Na+].[Na+] [14% sodium carbonate, sodium carbonate]
Tumor inhibition rate (breast cancer 4T1 cells; [14]): 35%
Tumor weight (g) (x ± s) (breast cancer 4T1 cells; [14]): 1.47 ± 0.24 g
Drug pH ([1]; Table 13): 10.8

Drug pH ([1]; Table 15): 2.5
Structure (SMILES): CC(=O)O [15% acetic acid, acetic acid]
Tumor inhibition rate (breast cancer 4T1 cells; [17]): 68%
Tumor weight (x ± s) (breast cancer 4T1 cells; [17]): 0.70 ± 0.18 g

Structure (SMILES): N=C(N)NCCC[C@H](N)C(=O)O [15% arginine, L-arginine]
Intratumoral injection Tumor inhibition rate (breast cancer 4T1 cells): 28%
Intratumoral injection Tumor weight (breast cancer 4T1 cells): 0.92 ± 0.26 g
Tumor inhibition rate (breast cancer 4T1 cells; [14]): 23%
Tumor weight (g) (x ± s) (breast cancer 4T1 cells; [14]): 1.74 ± 0.28 g
Drug pH ([1]; Table 13): 11.0

Drug pH ([1]; Table 15): 6.8
Structure (SMILES): NCC(=O)O [15% glycine, Glycine]
Tumor inhibition rate (breast cancer 4T1 cells; [17]): 17%
Tumor weight (x ± s) (breast cancer 4T1 cells; [17]): 1.81 ± 0.26 g

Structure (SMILES): N=C(N)NCCC[C@H](N)C(=O)O [20% arginine, L-arginine]
Tumor inhibition rate [2]: 55%
Tumor inhibition rate [3]: 53%
Intratumoral injection Tumor inhibition rate (breast cancer 4T1 cells): 33%
Intratumoral injection Tumor weight (breast cancer 4T1 cells): 0.86 ± 0.23 g
Tumor inhibition rate (breast cancer 4T1 cells; [12]): 27%
Tumor weight (x ± s) (breast cancer 4T1 cells; [12]): 1.72 g
Tumor inhibition rate (breast cancer 4T1 cells; [13]): 28%
Tumor weight (x ± s) (breast cancer 4T1 cells; [13]): 1.75 ± 0.29 g
Tumor inhibition rate (breast cancer 4T1 cells; [19]): 34%
Tumor weight (breast cancer 4T1 cells; [19]): 1.03 ± 0.29 g
Tumor inhibition rate of intraperitoneal injection [4]: 56%
Tumor inhibition rate of intratumoral injection [4]: 5%
Tumor inhibition rate [4]: 61%
Tumor inhibition rate [5]: 56%
Tumor inhibition rate [6]: 62%
Tumor inhibition rate [7]: 56%
Tumor inhibition rate [8, 15]: 63%
Intratumoral injection Tumor inhibition rate [8]: 61%
Intratumoral injection Tumor weight [8]: 0.99 ± 0.21 g
Tumor inhibition rate of intraperitoneal injection [8]: 5%
Tumor inhibition rate [8, 18]: (60%)
Tumor inhibition rate [8, 16]: (61%)**
Drug pH ([1]; Table 14): 10.8
Tumor inhibition rate [9]: 63%
Tumor inhibition rate [10]: 52%
Tumor inhibition rate [11]: 55%

Structure (SMILES): NCC(=O)O [20% glycine, Glycine]
Intratumoral injection Tumor inhibition rate (breast cancer 4T1 cells): 18%
Intratumoral injection Tumor weight (breast cancer 4T1 cells): 1.05 ± 0.32 g
Tumor inhibition rate of intraperitoneal injection [4]: 52%
Tumor inhibition rate of intratumoral injection [4]: 4%
Intratumoral injection Tumor inhibition rate [8]: 54%
Intratumoral injection Tumor weight [8]: 1.17 ± 0.28 g
Tumor inhibition rate of intraperitoneal injection [8]: 2%

Structure (SMILES): Cn1cc[nH]c1=S [Thiamazole, methimazole]
serum T3 (hyperthyroidism; negative control 1.9±0.1, blank 0.8±0.1): 1.1±0.1
serum T4 (hyperthyroidism; negative control 171.2±9.3, blank 39.6±3.1): 66.3±3.6
